# Laboratory results as given in article PMC5902575, “Characterization of AiiK, an AHL lactonase, from Kurthia huakui LAM0618^T and its application in quorum quenching on Pseudomonas aeruginosa PAO1” (Scientific Reports, 2018).
# Molecular target: T1, AiiK (Kurthia huakuii, UniProt Z9B3F0ZFT1)
# T1 construct: primer-encoded N-terminus MCQNKKLY
# Assay: HPLC of remaining AHL at […] nm, Michaelis-Menten fit
# Type: biochemical
# Settings: 10 mM PBS pH 7.4, 25 °C, 10 min, 4 μg/mL enzyme, 25–150 μM substrate; unit given as mM^−1 in the source; unit of the source corrected
# T1 sequence (Z9B3F0ZFT1 1-278 limits assumed): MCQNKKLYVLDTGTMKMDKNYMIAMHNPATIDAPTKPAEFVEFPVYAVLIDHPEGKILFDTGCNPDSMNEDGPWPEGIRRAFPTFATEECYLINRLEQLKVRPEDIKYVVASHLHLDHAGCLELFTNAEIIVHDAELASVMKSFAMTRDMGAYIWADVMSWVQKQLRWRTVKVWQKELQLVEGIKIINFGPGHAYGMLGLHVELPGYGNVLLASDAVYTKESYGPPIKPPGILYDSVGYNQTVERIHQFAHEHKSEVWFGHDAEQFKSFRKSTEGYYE
row,Mean ± SD / Km(mM^-1),SMILES
1,0.315 ± 0.065 mM,CCCCCCCCCC(=O)N[C@H]1CCOC1=O [C10-HSL]
2,0.036 ± 0.004 mM,CCCCCCCCCCCCCC(=O)N[C@H]1CCOC1=O [C14-HSL]
3,0.066 ± 0.02 mM,CCCC(=O)CC(=O)N[C@H]1CCOC1=O [3-Oxo-C6-HSL]
4,0.204 ± 0.031 mM,CCCCCC(=O)N[C@H]1CCOC1=O [C6-HSL]
